In patent US10351575B2, “Bicyclic urea, thiourea, guanidine and cyanoguanidine compounds useful for the treatment of pain” (Array BioPharma Inc., priority 2012, dated 2019) one finds IC50 data, which are given here for 27 molecules.

Structures are written as SMILES.

For this experiment, the target named is His-tagged recombinant human TrkA (Homo sapiens (Human), UniProt P04629). The experiment in a line: TrkA LanthaScreen Eu Kinase Binding Assay. The following applies: averaged IC50; TR-FRET binding, 60 min, 22° C.; read-out: TrkA Enzyme IC50. The method in brief: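 TR-FRET binding: 5 nM His-tagged human TrkA cytoplasmic domain with 4 nM Alexa-Fluor Tracer 236, 2 nM biotin anti-His and 2 nM Eu-streptavidin. Buffer was 25 mM MOPS pH 7.5, 5 mM MgCl2, 0.005% Triton X-100, 2% DMSO, 60 min at 22° C. IC50 from a four-parameter fit of ratiometric percent of control.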
Sequence of His-tagged recombinant human TrkA (P04629 440-796): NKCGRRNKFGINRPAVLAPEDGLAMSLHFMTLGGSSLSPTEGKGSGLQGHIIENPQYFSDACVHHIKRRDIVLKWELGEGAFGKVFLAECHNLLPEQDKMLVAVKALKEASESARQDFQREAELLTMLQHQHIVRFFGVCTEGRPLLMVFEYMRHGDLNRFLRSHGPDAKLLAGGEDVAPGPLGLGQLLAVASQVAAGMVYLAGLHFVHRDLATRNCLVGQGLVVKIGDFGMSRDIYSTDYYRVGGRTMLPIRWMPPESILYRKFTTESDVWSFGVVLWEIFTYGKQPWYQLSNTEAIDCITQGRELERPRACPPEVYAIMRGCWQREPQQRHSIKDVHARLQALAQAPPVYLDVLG
On the technique in general: TR-FRET usually uses a lanthanide donor and a delayed reading to cut background.
As usually defined, the IC50 is the concentration that inhibits the measured activity by half. Turning to `Cc1c(OC[C@H]2CN(C)CCO2)nn(-c2ccccc2)c1NC(=O)N[C@H]1c2ccccc2C(C)(C)C[C@@H]1O` [Example 75, 1-((1S,2S)-2-hydroxy-4,4-dimethyl-1,2,3,4-tetrahydronaphthalen-1-yl)-3-(4-methyl-3-(((R)-4-methylmorpholin-2-yl)methoxy)-1-phenyl-1H-pyrazol-5-yl)urea], the IC50 was < 100 nM. Regarding `Cc1c(OC[C@@H]2CN(C)CCO2)nn(-c2ccccc2)c1NC(=O)N[C@@H]1c2ccccc2C(C)(C)C[C@H]1O` [Example 76, 1-((1R,2R)-2-hydroxy-4,4-dimethyl-1,2,3,4-tetrahydronaphthalen-1-yl)-3-(4-methyl-3-(((S)-4-methylmorpholin-2-yl)methoxy)-1-phenyl-1H-pyrazol-5-yl)urea], the IC50 was < 100 nM.

Regarding `Cc1c(OC[C@H]2CN(C)CCO2)nn(-c2ccccc2)c1NC(=O)NC1c2cc(F)c(F)cc2C(C)(C)C[C@H]1O` (stereo partly drawn) [Example 77, 1-(trans-6,7-difluoro-2-hydroxy-4,4-dimethyl-1,2,3,4-tetrahydronaphthalen-1-yl)-3-(4-methyl-3-(((R)-4-methylmorpholin-2-yl)methoxy)-1-phenyl-1H-pyrazol-5-yl)urea], the IC50 is < 100 nM. Then `Cc1c(OC[C@H]2CN(C)CCO2)nn(-c2ccccc2)c1NC(=O)NC1c2ccccc2C2(CC2)[C@@H]1O` (stereo partly drawn) [Example 78, 1-(trans-2′-hydroxy-2,3′-dihydrospiro[cyclopropane-1,1′-inden]-3′-yl)-3-(4-methyl-3-(((R)-4-methylmorpholin-2-yl)methoxy)-1-phenyl-1H-pyrazol-5-yl)urea], with < 100 nM. With `CNC(=O)c1nn(-c2ccccc2)c(NC(=O)N[C@@H]2c3cc(F)c(F)cc3C(C)(C)C[C@H]2O)c1C` [Example 79, 5-(3-((1,2-trans)-6,7-difluoro-2-hydroxy-4,4-dimethyl-1,2,3,4-tetrahydronaphthalen-1-yl)ureido)-N,4-dimethyl-1-phenyl-1H-pyrazole-3-carboxamide] the figure was < 100 nM. With `Cc1c(-c2cnn(C)c2)nn(-c2ccccc2)c1NC(=O)N[C@@H]1c2cc(F)c(F)cc2C(C)(C)C[C@H]1O` [Example 80, 1-((1,2-trans)-6,7-difluoro-2-hydroxy-4,4-dimethyl-1,2,3,4-tetrahydronaphthalen-1-yl)-3-(1′,4-dimethyl-1-phenyl-1H,1′H-[3,4′-bipyrazol]-5-yl)urea], the IC50 was < 100 nM. Turning to `Cc1c(OCC2CCN(C)CC2)nn(-c2ccccc2)c1NC(=O)N[C@@H]1c2cc(F)c(F)cc2C(C)(C)C[C@H]1O` [Example 81, 1-((1,2-trans)-6,7-difluoro-2-hydroxy-4,4-dimethyl-1,2,3,4-tetrahydronaphthalen-1-yl)-3-(4-methyl-3-((1-methylpiperidin-4-yl)methoxy)-1-phenyl-1H-pyrazol-5-yl)urea], the IC50 is < 100 nM. With `COc1nn(-c2ccccc2)c(NC(=O)N[C@@H]2c3cc(F)c(F)cc3C(C)(C)C[C@H]2O)c1C` [Example 82, 1-((1,2-trans)-6,7-difluoro-2-hydroxy-4,4-dimethyl-1,2,3,4-tetrahydronaphthalen-1-yl)-3-(3-methoxy-4-methyl-1-phenyl-1H-pyrazol-5-yl)urea], the half-inhibitory concentration (IC50) was < 100 nM. With `Cc1c(-c2ccc(=O)n(C)c2)nn(-c2ccccc2)c1NC(=O)N[C@@H]1c2cc(F)c(F)cc2C(C)(C)C[C@H]1O` [Example 83, 1-((1,2-trans)-6,7-difluoro-2-hydroxy-4,4-dimethyl-1,2,3,4-tetrahydronaphthalen-1-yl)-3-(4-methyl-3-(1-methyl-6-oxo-1,6-dihydropyridin-3-yl)-1-phenyl-1H-pyrazol-5-yl)urea] the figure was < 100 nM. Then `Cc1ncc(-c2nn(-c3ccccc3)c(NC(=O)N[C@@H]3c4cc(F)c(F)cc4C(C)(C)C[C@H]3O)c2C)cn1` [Example 84, 1-((1,2-trans)-6,7-difluoro-2-hydroxy-4,4-dimethyl-1,2,3,4-tetrahydronaphthalen-1-yl)-3-(4-methyl-3-(2-methylpyrimidin-5-yl)-1-phenyl-1H-pyrazol-5-yl)urea], with < 100 nM; and `CNC(=O)c1nn(-c2ccccc2)c(NC(=O)N[C@@H]2c3ccccc3C(C)(C)[C@@H](OC)[C@H]2O)c1C` [Example 85, 5-(3-((r-1,t-2,t-3)-2-hydroxy-3-methoxy-4,4-dimethyl-1,2,3,4-tetrahydronaphthalen-1-yl)ureido)-N,4-dimethyl-1-phenyl-1H-pyrazole-3-carboxamide], with < 100 nM; and `CO[C@H]1[C@@H](O)[C@H](NC(=O)Nc2c(C)c(-c3cnn(C)c3)nn2-c2ccccc2)c2ccccc2C1(C)C` [Example 86, 1-(1′,4-dimethyl-1-phenyl-1H,1′H-[3,4′-bipyrazol]-5-yl)-3-((r-1,t-2,t-3)-2-hydroxy-3-methoxy-4,4-dimethyl-1,2,3,4-tetrahydronaphthalen-1-yl)urea], with < 100 nM.

Regarding `CO[C@H]1[C@@H](O)[C@H](NC(=O)Nc2c(C)c(OCC3CCN(C)CC3)nn2-c2ccccc2)c2ccccc2C1(C)C` [Example 87, 1-((r-1,t-2,t-3)-2-hydroxy-3-methoxy-4,4-dimethyl-1,2,3,4-tetrahydronaphthalen-1-yl)-3-(4-methyl-3-((1-methylpiperidin-4-yl)methoxy)-1-phenyl-1H-pyrazol-5-yl)urea], the IC50 is < 100 nM. Then `CNC(=O)c1nn(-c2ccccc2)c(NC(=O)N[C@@H]2c3ccc(F)cc3C(C)(C)C[C@H]2O)c1C` [Example 88, 5-(3-((1,2-trans)-6-fluoro-2-hydroxy-4,4-dimethyl-1,2,3,4-tetrahydronaphthalen-1-yl)ureido)-N,4-dimethyl-1-phenyl-1H-pyrazole-3-carboxamide], with < 100 nM; and `Cc1c(-c2cnn(C)c2)nn(-c2ccccc2)c1NC(=O)N[C@@H]1c2ccc(F)cc2C(C)(C)C[C@H]1O` [Example 89, 1-(1′,4-dimethyl-1-phenyl-1H,1′H-[3,4′-bipyrazol]-5-yl)-3-((1,2-trans)-6-fluoro-2-hydroxy-4,4-dimethyl-1,2,3,4-tetrahydronaphthalen-1-yl)urea], with < 100 nM; and `Cc1c(-c2ccc(=O)n(C)c2)nn(-c2ccccc2)c1NC(=O)N[C@@H]1c2ccc(F)cc2C(C)(C)C[C@H]1O` [Example 90], with < 100 nM.

For the molecule `CNC(=O)c1nn(-c2ccccc2)c(NC(=O)N[C@@H]2c3cc(F)ccc3C(C)(C)C[C@H]2O)c1C` [Example 91, 5-(3-((1,2-trans)-7-fluoro-2-hydroxy-4,4-dimethyl-1,2,3,4-tetrahydronaphthalen-1-yl)ureido)-N,4-dimethyl-1-phenyl-1H-pyrazole-3-carboxamide], the IC50 was < 100 nM.

In the case of `Cc1c(-c2cnn(C)c2)nn(-c2ccccc2)c1NC(=O)N[C@@H]1c2cc(F)ccc2C(C)(C)C[C@H]1O` [Example 92, 1-(1′,4-dimethyl-1-phenyl-1H,1′H-[3,4′-bipyrazol]-5-yl)-3-((1,2-trans)-7-fluoro-2-hydroxy-4,4-dimethyl-1,2,3,4-tetrahydronaphthalen-1-yl)urea], the IC50 is < 100 nM.

With `Cc1c(-c2ccc(=O)n(C)c2)nn(-c2ccccc2)c1NC(=O)N[C@@H]1c2cc(F)ccc2C(C)(C)C[C@H]1O` [Example 93, 1-((1,2-trans)-7-fluoro-2-hydroxy-4,4-dimethyl-1,2,3,4-tetrahydronaphthalen-1-yl)-3-(4-methyl-3-(1-methyl-6-oxo-1,6-dihydropyridin-3-yl)-1-phenyl-1H-pyrazol-5-yl)urea], the concentration for half-maximal inhibition (IC50) was < 100 nM. For the molecule `COCc1ccc2c(c1)C(NC(=O)Nc1c(C)c(=O)[nH]n1-c1ccccc1)CN(CC(F)(F)F)C2C` (stereo not drawn) [Example 96, 1-(6-(methoxymethyl)-1-methyl-2-(2,2,2-trifluoroethyl)-1,2,3,4-tetrahydroisoquinolin-4-yl)-3-(4-methyl-5-oxo-2-phenyl-2,5-dihydro-1H-pyrazol-3-yl)urea], the IC50 is < 100 nM. On to `Cc1nn(-c2ccccc2)c(NC(=O)N[C@@H]2c3cc(CO)ccc3C(C)(C)C[C@H]2O)c1C` [Example 100], for which the IC50 is < 100 nM.

With `Cc1c(-c2cnn(C)c2)nn(-c2ccccc2)c1NC(=O)N[C@H]1CCCc2cc(F)ccc21` [Example 103, (S)-1-(1′,4-dimethyl-1-phenyl-1H,1′H-[3,4′-bipyrazol]-5-yl)-3-(6-fluoro-1,2,3,4-tetrahydronaphthalen-1-yl)urea], the IC50 is < 100 nM. `COCc1ccc2c(c1)C(NC(=O)Nc1c(C)c(-c3cnn(C)c3)nn1-c1ccccc1)CN(CC(F)(F)F)C2C` (stereo not drawn) [Example 109, 1-(1′,4-dimethyl-1-phenyl-1H,1′H-[3,4′-bipyrazol]-5-yl)-3-(6-(methoxymethyl)-1-methyl-2-(2,2,2-trifluoroethyl)-1,2,3,4-tetrahydroisoquinolin-4-yl)urea]: the half-inhibitory concentration (IC50) is < 100 nM. Regarding `COCc1ccc2c(c1)C(NC(=O)Nc1c(C)c(C(N)=O)nn1-c1ccccc1)CN(CC(F)(F)F)C2C` (stereo not drawn) [Example 110, 5-(3-(6-(methoxymethyl)-1-methyl-2-(2,2,2-trifluoroethyl)-1,2,3,4-tetrahydroisoquinolin-4-yl)ureido)-4-methyl-1-phenyl-1H-pyrazole-3-carboxamide], the half-maximal inhibitory concentration (IC50) was < 100 nM. `COCc1ccc2c(c1)C(NC(=O)Nc1c(C)c(-c3cn(C)cn3)nn1-c1ccccc1)CN(CC(F)(F)F)C2C` (stereo not drawn) [Example 111, 1-(6-(methoxymethyl)-1-methyl-2-(2,2,2-trifluoroethyl)-1,2,3,4-tetrahydroisoquinolin-4-yl)-3-(4-methyl-3-(1-methyl-1H-imidazol-4-yl)-1-phenyl-1H-pyrazol-5-yl)urea]: the half-inhibitory concentration (IC50) was < 100 nM. Consider `Cc1c(-c2cnn(C)c2)nn(-c2ccccc2)c1NC(=O)NC1CCSc2ccc(Br)cc21` (stereo not drawn) [Example 112, 1-(6-bromothiochroman-4-yl)-3-(1′,4-dimethyl-1-phenyl-1H,1′H-[3,4′-bipyrazol]-5-yl)urea], for which the IC50 was < 100 nM. Then `Cc1c(-c2cnn(C)c2)nn(-c2ccccc2)c1NC(=O)NC1CCS(=O)(=O)c2ccc(Br)cc21` (stereo not drawn) [Example 113, 1-(6-bromo-1,1-dioxidothiochroman-4-yl)-3-(1′,4-dimethyl-1-phenyl-1H,1′H-[3,4′-bipyrazol]-5-yl)urea], with 100 to 1000 nM.
